Laboratory results reported in patent US6143764A, “Quinoline and quinazoline derivatives inhibiting platelet-derived growth factor receptor autophosphorylation and pharmaceutical compositions containing the same” (priority 1995, dated 2000).

biological target: T1, PDGF receptor (Rattus norvegicus, UniProt Q05030); test: PDGF receptor autophosphorylation inhibition in cultured rat mesangial cells; format: cell-based; details: PDGF-BB 50 ng/ml
T1 construct: cultured rat mesangial cells which are known to have the PDGF receptor; endogenous in cells; host or cells: primary mesangial cells cultured from glomeruli of Wistar-Kyoto rats (Charles River Japan), more than 5 passages
T1 sequence (Q05030 32-1097): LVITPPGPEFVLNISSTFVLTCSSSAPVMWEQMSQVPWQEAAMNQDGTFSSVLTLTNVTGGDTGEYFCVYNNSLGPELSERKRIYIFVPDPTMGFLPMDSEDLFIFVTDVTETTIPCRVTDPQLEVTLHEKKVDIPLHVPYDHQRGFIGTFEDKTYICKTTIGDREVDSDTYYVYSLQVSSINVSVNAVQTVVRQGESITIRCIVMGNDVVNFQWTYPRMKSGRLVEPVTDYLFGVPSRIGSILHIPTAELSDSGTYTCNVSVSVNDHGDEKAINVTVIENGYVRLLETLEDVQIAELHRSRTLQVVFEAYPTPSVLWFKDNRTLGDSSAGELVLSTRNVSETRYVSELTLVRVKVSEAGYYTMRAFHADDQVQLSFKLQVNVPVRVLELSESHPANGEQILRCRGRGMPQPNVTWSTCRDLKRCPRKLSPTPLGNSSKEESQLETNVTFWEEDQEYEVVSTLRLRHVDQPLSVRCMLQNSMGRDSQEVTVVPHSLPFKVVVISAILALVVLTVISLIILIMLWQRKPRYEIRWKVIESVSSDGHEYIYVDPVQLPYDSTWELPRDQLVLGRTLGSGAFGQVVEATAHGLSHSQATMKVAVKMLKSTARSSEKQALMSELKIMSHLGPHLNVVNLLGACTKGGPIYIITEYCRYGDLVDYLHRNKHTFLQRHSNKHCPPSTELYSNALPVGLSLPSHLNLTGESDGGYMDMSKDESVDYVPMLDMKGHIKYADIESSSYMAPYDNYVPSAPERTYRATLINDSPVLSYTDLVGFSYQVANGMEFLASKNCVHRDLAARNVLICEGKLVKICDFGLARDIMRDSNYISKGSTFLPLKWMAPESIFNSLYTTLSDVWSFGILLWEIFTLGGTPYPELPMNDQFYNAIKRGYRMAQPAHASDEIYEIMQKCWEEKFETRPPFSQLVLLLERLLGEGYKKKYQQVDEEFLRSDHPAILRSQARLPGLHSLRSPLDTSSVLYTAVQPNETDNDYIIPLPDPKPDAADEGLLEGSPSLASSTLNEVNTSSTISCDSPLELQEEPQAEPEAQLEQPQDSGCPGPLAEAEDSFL
Method: 1. Cultivation of rat mesangial cells
The glomerulus-derived adhesive cells were subcultured several times to obtain mesangial cells. The mesangial cells subcultured more than 5 passages were used for the assay.
2.Evaluation of PDGF receptor autophosphorylation inhibition
The mesangial cells were seeded in 24-well flat-bottom microtiter plates and then cultured in the medium containing 10% FCS for 2 days. When the cells were grown to about 3×10^4 cells per well, the medium was changed to the medium containing 0.5% FCS, the cultivation was continued for another 3 days, and then cell growth was arrested. The culture medium was removed, the adhered cells were washed with 500 μl of the medium, and 250 μl of the medium containing 0.1% bovine serum albumin (hereinafter abbreviated to BSA) was then added. A test drug dissolved in 1.38 μl of dimethyl sulfoxide (hereinafter abbreviated to DMSO) was added to this culture medium, and the admixture was incubated at 37° C. for 1 hour. Recombinant human platelet-derived growth factor BB chain (hereinafter abbreviated to PDGF-BB) was dissolved in the medium containing 0.1% BSA, 25 μl per well of the solution was added at final 50 ng/ml, and the incubation was continued at 37° C. for 10 minutes. […] The cells were allowed to stand at 4° C. for 30 minutes for lysis, and the resulting solution was thoroughly admixed with an equal amount of Tris-buffered physiological saline containing 1% sodium dodecyl sulfate (hereinafter abbreviated to SDS). […] After the electrophoresis, proteins in the gel were electrically transferred to a PVDF filter, which was then subjected to Western blotting using monoclonal antibodies against phosphotyrosine. Bands of PDGF receptor (molecular weight: about 180 Kda) which were autophosphorylated due to the addition of PDGF-BB were quantitated by a densitometer. Autophosphorylation rates for individual wells with drugs were calculated by setting measurements for PDGF receptor autophosphorylation in the wells without drugs in the presence and absence of PDGF-BB as 100% and 0%, respectively.

SMILES	IC50 [µM]
COc1cccc(Oc2ccnc3cc(OC)c(OC)cc23)c1 [Compound 2, 6,7-Dimethoxy-4-(3-methoxyphenoxy)quinoline]	0.44
COc1ccc(OC)c(NC(=O)Nc2ccc(Oc3ccnc4cc(OC)c(OC)cc34)cc2)c1 [Compound 258, N-(2,5-Dimethoxyphenyl)-N'-{4-[(6,7-dimethoxy-4-quinolyl)oxy]phenyl}urea]	0.007
COc1ccc(NC(=O)Nc2ccc(Oc3ccnc4cc(OC)c(OC)cc34)cc2)c(OC)c1 [Compound 265, N-(2,4-Dimethoxyphenyl)-N'-{4-[(6,7-dimethoxy-4-quinolyl)oxy]phenyl}urea]	0.005
COc1cc2nccc(Oc3ccc(NC(=O)Nc4cccc(N)c4)cc3)c2cc1OC [Compound 172, N-(3-Aminophenyl)-N'-{4-[(6,7-dimethoxy-4-quinolyl)oxy]phenyl}urea]	0.01
COc1cc2nccc(Oc3ccc(NC(=O)Nc4ccccc4C(F)(F)F)cc3)c2cc1OC [Compound 54]	0.003
COc1cc2nccc(Oc3ccc(NC(=O)Nc4cccc(N(C)C)c4)cc3)c2cc1OC [Compound 192]	0.004
COc1cc2nccc(Oc3ccc(NC(=O)Nc4ccc(N)cc4Cl)cc3)c2cc1OC [Compound 274, N-(4-Amino-2-chlorophenyl)-N'-{4-[(6,7-dimethoxy-4-quinolyl)oxy]phenyl}urea]	0.036
CCCCc1ccc(C(=O)Nc2ccc(Oc3ccnc4cc(OC)c(OC)cc34)cc2)cc1 [Compound 69, N-{4-[(6,7-Dimethoxy-4-quinolinyl)oxy]phenyl}-(4-butylphenyl)carboxamide]	0.05
COc1cc2nccc(Oc3ccc(NC(=O)NCc4ccccn4)cc3)c2cc1OC [Compound 247, N-(4-[(6,7-Dimethoxy-4-quinolyl)oxy]phenyl)-N'-(2-pyridylmethyl)urea]	0.009
COc1cc2nccc(Oc3ccc(NC(=O)Nc4cccc(C(=O)O)c4)cc3)c2cc1OC [Compound 283, N-(3-Hydroxycarbonylphenyl)-N'-{4-[(6,7-dimethoxy-4-quinolyl)oxy]phenyl}urea]	0.002
COc1cc2nccc(Oc3ccc(NC(=O)Nc4c(C)cccc4Cl)cc3)c2cc1OC [Compound 226, N-(2-Chloro-6-methylphenyl)-N'-{4-[(6,7-dimethoxy-4-quinolyl)oxy]phenyl}urea]	0.011
COc1cc2nccc(Oc3cccc(C(C)=O)c3)c2cc1OC [Compound 6]	0.45
COc1cc2nccc(Oc3ccc(NC(=O)NC(=O)c4ccccn4)cc3)c2cc1OC [Compound 240, N-{4-[(6,7-dimethoxy-4-quinolyl)oxy]phenyl}-N'-(2-pyridinecarbonyl)urea]	0.15
COc1cc2nccc(Oc3ccc(NC(=O)Nc4ccc(C(C)C)cc4)cc3)c2cc1OC [Compound 51, N-(4-Isopropylphenyl)-N'-{4-[(6,7-dimethoxy-4-quinolinyl)oxy]phenyl}urea]	0.009
COc1cc2nccc(Oc3ccc(NC(=O)NCc4cccnc4)cc3)c2cc1OC [Compound 249, N-(4-[(6,7-Dimethoxy-4-quinolyl)oxy]phenyl)-N'-(3-pyridylmethyl) urea]	0.041
COc1cc2nccc(Oc3ccc(NC(=O)Nc4cc(OC)c(OC)c(OC)c4)cc3)c2cc1OC [Compound 271, N-(3,4,5-Trimethoxyphenyl)-N'-{4-[(6,7-dimethoxy-4-quinolyl)oxy]phenyl}urea]	0.004
COc1cc2nccc(Oc3ccc(NC(=O)Nc4cccc(C(F)(F)F)c4)cc3)c2cc1OC [Compound 53]	0.01
COc1cc2nccc(Oc3ccc(NC(=O)Nc4ccc5c(c4)CCC5)cc3)c2cc1OC [Compound 197, N-(5-Indanyl)-N'-{4-[(6,7-dimethoxy-4-quinolyl)oxy]phenyl}urea]	0.01
COc1cc2nccc(Oc3ccc(NC(=O)c4ccc(Br)cc4)cc3)c2cc1OC [Compound 75, N-{4-[(6,7-Dimethoxy-4-quinolinyl)oxy]phenyl}-(4-bromophenyl)carboxamide]	0.18
COc1cc2nccc(Oc3ccc(NC(=O)Nc4c(F)cccc4F)cc3)c2cc1OC [Compound 263, N-(2,6-Difluorophenyl)-N'-{4-[(6,7-dimethoxy-4-quinolyl)oxy]phenyl}urea]	0.004
COc1cc2nccc(Oc3ccc(NC(=O)NC(C)c4cccc5ccccc45)cc3)c2cc1OC (centres unmarked) [Compound 231, N-{4-[(6,7-dimethoxy-4-quinolyl)oxy]phenyl)-N'-[1-(1-naphthyl)ethyl]urea]	0.019

SMILES	IC50 [µM]
COc1cc2nccc(Oc3ccc(NC(=O)Nc4cccc(OC)c4OC)cc3)c2cc1OC [Compound 268, N-(2,3-Dimethoxyphenyl)-N'-{4-[(6,7-dimethoxy-4-quinolyl)oxy]phenyl}urea]	0.007
COc1cc2nccc(Oc3ccc(NC(=O)Nc4c(Cl)cccc4Cl)cc3)c2cc1OC [Compound 230, N-(2,6-Dichlorophenyl)-N'-{4-[(6,7-dimethoxy-4-quinolyl)oxy]phenyl}urea]	0.034
COc1cc2nccc(Oc3ccc(NC(=O)Nc4cccc5ccccc45)cc3)c2cc1OC [Compound 174, N-{4-[(6,7-Dimethoxy-4-quinolyl)oxy]phenyl}-N'-(1-naphthyl)urea]	0.002
COc1cc2nccc(Oc3ccc(NC(=O)Nc4ccc(Cl)cc4N)cc3)c2cc1OC [Compound 239, N-(2-Amino-4-chlorophenyl)-N'-{4-[(6,7-dimethoxy-4-quinolyl)oxy]phenyl}urea]	0.005
COc1cc2nccc(Oc3ccc(C(=O)c4ccc(N5CCCCC5)cc4)cc3)c2cc1OC [Compound 290, {4-[(6,7-Dimethoxy-4-quinolyl)oxy]phenyl}[4-piperidinophenyl]methanone]	0.055
COc1cc2nccc(Oc3ccc(NC(=O)Nc4ccc(C(=O)c5ccccc5)cc4)cc3)c2cc1OC [Compound 195, N-{4-[(6,7-Dimethoxy-4-quinolyl)oxy]phenyl}-N'-(4-phenylcarbonylphenyl)urea]	0.079
COc1cc2nccc(Oc3cccc(NC(=O)Nc4ccccc4C(F)(F)F)c3)c2cc1OC [Compound 94]	0.023
COc1cc2nccc(Oc3ccc(C(=O)c4ccc(N5CCOCC5)cc4)cc3)c2cc1OC [Compound 288, {4-[(6,7-Dimethoxy-4-quinolyl)oxy]phenyl}[4-morpholinophenyl]methanone]	0.024
CCCCc1ccc(NC(=O)Nc2ccc(Oc3ccnc4cc(OC)c(OC)cc34)cc2)cc1 [Compound 47, N-(4-Butylphenyl)-N'-{4-[(6,7-dimethoxy-4-quinolinyl)oxy]phenyl}urea]	0.043
COc1cc2nccc(Oc3ccc(NC(=O)C4CCCC4)cc3)c2cc1OC [Compound 79, N-{4-[(6,7-Dimethoxy-4-quinolinyl)oxy]phenyl}cyclopentanecarboxamide]	0.34
COc1cc2nccc(Oc3ccc(NC(=O)Nc4ccc(Oc5ccccc5)cc4)cc3)c2cc1OC [Compound 50, N-{4-[(6,7-Dimethoxy-4-quinolinyl)oxy]phenyl}-N'-(4-phenoxyphenyl)urea]	0.067
COc1cc2nccc(Oc3ccc(NC(=O)NCCCCl)cc3)c2cc1OC [Compound 278, N-(3-Chloropropyl)-N'-{4-[(6,7-dimethoxy-4-quinolyl)oxy]phenyl}urea]	0.003
CCCCCCNC(=O)Nc1ccc(Oc2ccnc3cc(OC)c(OC)cc23)cc1 [Compound 196, N-Hexyl-N'-{4-[(6,7-dimethoxy-4-quinolyl)oxy]phenyl}urea]	0.031
COc1cc2nccc(Oc3ccc(NC(=O)NCc4ccncc4)cc3)c2cc1OC [Compound 250]	0.017
COc1ccc(NC(=O)Nc2ccc(Oc3ccnc4cc(OC)c(OC)cc34)cc2)cc1OC [Compound 198, N-(3,4-Dimethoxyphenyl)-N'-{4-[(6,7-dimethoxy-4-quinolyl)oxy]phenyl}urea]	0.011
COc1cc2nccc(Oc3ccc(C(=O)c4ccc(C(F)(F)F)cc4)cc3)c2cc1OC [Compound 29, (4-Trifluoromethylphenyl){4-[(6,7-dimethoxy-4-quinolyl)oxy]phenyl}methanone]	0.8
COCCCNC(=O)Nc1ccc(Oc2ccnc3cc(OC)c(OC)cc23)cc1 [Compound 245, N-(3-Methoxypropyl)-N'-{4-[(6,7-dimethoxy-4-quinolyl)oxy]phenyl}urea]	0.006
COc1cc2nccc(Oc3ccc(NC(=O)Nc4ccccc4N)cc3)c2cc1OC [Compound 169, N-(2-Aminophenyl)-N'-{4-[(6,7-dimethoxy-4-quinolyl)oxy]phenyl}urea]	0.004
COc1cc2nccc(Oc3ccc(NC(=O)Nc4cccc(C)c4)cc3)c2cc1OC [Compound 55, N-{4-[(6,7-Dimethoxy-4-quinolyl)oxy]phenyl}-N'-(3-methylphenyl)urea]	0.003
COc1cc2nccc(Oc3ccc(NC(=O)Nc4ccccc4SC)cc3)c2cc1OC [Compound 276, N-(2-Methylthiophenyl)-N'-{4-[(6,7-dimethoxy-4-quinolyl)oxy]phenyl}urea]	0.005
